From the supplement of paper PMC10627819

Columns and labels:
S. aureus Newman [1] = assay: Bliss interaction score (quartile over a dose matrix) (fitness difference); higher = more antagonism (negative = synergy)
How it was run: (§1)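 Fitness is OD595 at stationary-phase entry relative to the plate's robust no-drug mean, capped at 1. Single-drug fitness was inferred from combinations. The Bliss score is observed minus product-expected fitness, summarised by quartiles over technical, biological and donor/recipient replicates.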

B. subtilis 168 [2] = assay: as above
How it was run: as §1

S. aureus DSM 20231 = assay: as above
How it was run: as §1

S. pneumoniae D39V [3] = assay: as above
How it was run: as §1

S. aureus Newman [4] = assay: fitness (endpoint OD595 vs no drug) (fraction); higher = more growth; conditions: main component drawn
How it was run: (§2)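 Background-subtracted growth curves were the basis for fitness, taken as the optical density at entry into stationary phase over the robust mean of no-drug control wells. A cap of 1 was applied. The curves came from OD595 readings every 30 min for 14 h at 37 °C, in 384-well plates seeded at OD595 0.01 with 30 µl, or 55 µl for S. pneumoniae.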

B. subtilis 168 [5] = assay: as above
How it was run: as §2

S. pneumoniae D39V [6] = assay: as above
How it was run: as §2
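Throughout, for Bliss interaction score (quartile over a dose matrix): first quartile when negative (synergy) and third quartile when positive (antagonism).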

CC[C@H](C)[C@H](N)C1=N[C@H](C(=O)N[C@@H](CC(C)C)C(=O)N[C@H](CCC(=O)O)C(=O)N[C@H](C(=O)N[C@H]2CCCCNC(=O)[C@H](CC(N)=O)NC(=O)[C@@H](CC(=O)O)NC(=O)[C@H](Cc3cnc[nH]3)NC(=O)[C@@H](Cc3ccccc3)NC(=O)[C@H]([C@@H](C)CC)NC(=O)[C@@H](CCCN)NC2=O)[C@@H](C)CC)CS1 [Bacitracin] + CO/N=C(\C(=O)N[C@@H]1C(=O)N2C(C(=O)[O-])=C(C[N+]3(C)CCCC3)CS[C@H]12)c1csc(N)n1 [Cefepime]
main component drawn
Conditions | Bliss interaction score
B. subtilis 168 [2] | -0.124
S. aureus DSM 20231 | 0.0889
S. aureus Newman [1] | -0.0863
S. pneumoniae D39V [3] | -0.144

fitness, S. aureus Newman [4]
Conditions | first compound 18.75 µg/mL | first compound 37.5 µg/mL | first compound 75 µg/mL
partner 0.125 µg/mL | 0.699 | – | 0.0274
partner 0.25 µg/mL | 0.634 | – | 0.0298
partner 0.5 µg/mL | – | 0.0986 | 0.0408

CC(=O)NC[C@H]1CN(c2ccc(N3CCOCC3)c(F)c2)C(=O)O1 [Linezolid] + CN(C)c1cc(NC(=O)CNC(C)(C)C)c(O)c2c1C[C@H]1C[C@H]3[C@H](N(C)C)C(O)=C(C(N)=O)C(=O)[C@@]3(O)C(O)=C1C2=O [Tigecycline]
Conditions | Bliss interaction score
B. subtilis 168 [2] | 0.11
S. aureus DSM 20231 | -0.0817
S. aureus Newman [1] | -0.0561
S. pneumoniae D39V [3] | -0.158

fitness, B. subtilis 168 [5], one replicate
Conditions | partner 0.039 µg/mL | partner 0.078 µg/mL | partner 0.125 µg/mL | partner 0.156 µg/mL | partner 0.25 µg/mL | partner 0.5 µg/mL
first compound 0.0625 µg/mL | 0.872 | 0.848 | – | 0.896 | – | –
first compound 0.125 µg/mL | – | – | ≥ 1 | – | 0.871 | 0.909
first compound 0.25 µg/mL | – | – | 0.906 | – | 0.839 | 0.782
first compound 0.5 µg/mL | – | – | 0.214 | – | 0.0983 | 0.111

Conditions | fitness
B. subtilis 168 [5], first compound 0.125 µg/mL, partner 0.039 µg/mL | 0.542
B. subtilis 168 [5], first compound 0.125 µg/mL, partner 0.078 µg/mL | 0.537
B. subtilis 168 [5], first compound 0.125 µg/mL, partner 0.156 µg/mL | 0.543
B. subtilis 168 [5], first compound 0.25 µg/mL, partner 0.078 µg/mL | 0.0754
B. subtilis 168 [5], first compound 0.25 µg/mL, partner 0.156 µg/mL | 0.0704
B. subtilis 168 [5], first compound 0.5 µg/mL, partner 0.039 µg/mL | 0.0624
B. subtilis 168 [5], first compound 0.5 µg/mL, partner 0.078 µg/mL | 0.0638
B. subtilis 168 [5], first compound 0.5 µg/mL, partner 0.156 µg/mL | 0.0364
S. pneumoniae D39V [6], first compound 0.105 µg/mL, partner 0.65 µg/mL | 0.829
S. pneumoniae D39V [6], first compound 0.105 µg/mL, partner 1.3 µg/mL | 0.785
S. pneumoniae D39V [6], first compound 0.105 µg/mL, partner 2.6 µg/mL | 0.801
S. pneumoniae D39V [6], first compound 0.2 µg/mL, partner 0.65 µg/mL | 0.712
S. pneumoniae D39V [6], first compound 0.2 µg/mL, partner 1.3 µg/mL | 0.694
S. pneumoniae D39V [6], first compound 0.2 µg/mL, partner 2.6 µg/mL | 0.692
S. pneumoniae D39V [6], first compound 0.21 µg/mL, partner 0.65 µg/mL | 0.718
S. pneumoniae D39V [6], first compound 0.21 µg/mL, partner 1.3 µg/mL | 0.71
S. pneumoniae D39V [6], first compound 0.21 µg/mL, partner 2.6 µg/mL | 0.66
S. pneumoniae D39V [6], first compound 0.4 µg/mL, partner 0.65 µg/mL | 0.588
S. pneumoniae D39V [6], first compound 0.4 µg/mL, partner 1.3 µg/mL | 0.582
S. pneumoniae D39V [6], first compound 0.4 µg/mL, partner 2.6 µg/mL | 0.552
S. pneumoniae D39V [6], first compound 0.42 µg/mL, partner 0.65 µg/mL | 0.393
S. pneumoniae D39V [6], first compound 0.42 µg/mL, partner 1.3 µg/mL | 0.366
S. pneumoniae D39V [6], first compound 0.42 µg/mL, partner 2.6 µg/mL | 0.323
S. pneumoniae D39V [6], first compound 0.8 µg/mL, partner 0.65 µg/mL | 0.252
S. pneumoniae D39V [6], first compound 0.8 µg/mL, partner 1.3 µg/mL | 0.273
S. pneumoniae D39V [6], first compound 0.8 µg/mL, partner 2.6 µg/mL | 0.275

CC[C@H](C)[C@H](N)C1=N[C@H](C(=O)N[C@@H](CC(C)C)C(=O)N[C@H](CCC(=O)O)C(=O)N[C@H](C(=O)N[C@H]2CCCCNC(=O)[C@H](CC(N)=O)NC(=O)[C@@H](CC(=O)O)NC(=O)[C@H](Cc3cnc[nH]3)NC(=O)[C@@H](Cc3ccccc3)NC(=O)[C@H]([C@@H](C)CC)NC(=O)[C@@H](CCCN)NC2=O)[C@@H](C)CC)CS1 [Bacitracin] + O=C(N[C@H](CO)[C@H](O)c1ccc([N+](=O)[O-])cc1)C(Cl)Cl [Chloramphenicol]
main component drawn
Conditions | Bliss interaction score
B. subtilis 168 [2] | -0.106
S. aureus DSM 20231 | -0.0262
S. aureus Newman [1] | -0.0971
S. pneumoniae D39V [3] | -0.0459

fitness, S. aureus Newman [4]
Conditions | first compound 18.75 µg/mL | first compound 37.5 µg/mL | first compound 75 µg/mL
partner 0.75 µg/mL | 0.589 | 0.182 | 0.0093
partner 1.5 µg/mL | 0.38 | 0.0293 | 0.0143
partner 3 µg/mL | 0.0184 | 0.0086 | 0.0146

CC[C@H](C)[C@H](N)C1=N[C@H](C(=O)N[C@@H](CC(C)C)C(=O)N[C@H](CCC(=O)O)C(=O)N[C@H](C(=O)N[C@H]2CCCCNC(=O)[C@H](CC(N)=O)NC(=O)[C@@H](CC(=O)O)NC(=O)[C@H](Cc3cnc[nH]3)NC(=O)[C@@H](Cc3ccccc3)NC(=O)[C@H]([C@@H](C)CC)NC(=O)[C@@H](CCCN)NC2=O)[C@@H](C)CC)CS1 [Bacitracin] + C/C(=C\C(=O)OCCCCCCCCC(=O)O)C[C@@H]1OC[C@H](C[C@@H]2O[C@H]2[C@@H](C)[C@H](C)O)[C@@H](O)[C@H]1O [Pseudomonic acid]
main component drawn
Conditions | Bliss interaction score
B. subtilis 168 [2] | -0.0784
S. aureus DSM 20231 | 0.0189
S. aureus Newman [1] | 0.0307
S. pneumoniae D39V [3] | -0.0953

fitness, S. aureus Newman [4], one replicate
Conditions | first compound 18.75 µg/mL | first compound 37.5 µg/mL | first compound 75 µg/mL
partner 0.0313 µg/mL | 0.0438 | 0.029 | 0.0257
partner 0.0625 µg/mL | 0.0196 | 0.0219 | 0.0077
partner 0.125 µg/mL | 0.0416 | 0.0193 | 0.0115
